We go through six compounds from publication PMC6943726, “Discovery of 8-Amino-Substituted 2-Phenyl-2,7-Naphthyridinone Derivatives as New c-Kit/VEGFR-2 Kinase Inhibitors” (Molecules, 2019).

What all share (format): biochemical
One experiment concerns the target T1, MET (Homo sapiens, UniProt P08581).
T1 construct: was evaluated using an enzyme assay with a recombinant kinase domain; purchased Invitrogen (Carlsbad, CA, US)
The experiment is described as follows: HTRF enzyme assay with recombinant MET kinase domain. Particulars: purified recombinant MET kinase domain, read-out: Inhibitory Activity, IC50, MET. The protocol: (§1) The ability of the synthesized compounds to inhibit MET, c-Kit, and VEGFR-2 activities was evaluated using an enzyme assay with a recombinant kinase domain [29]. Based on the structure activity relationship (SAR) of MET inhibitors, we proposed that the removal of the key diaryl ether fragments in compound 3 would result in a loss of MET activity.
(§2) The ability of compounds to inhibit the activity of three kinases (MET, c-Kit, and VEGFR-2) was tested in vitro [30]. Enzyme assays were run in homogeneous time-resolved fluorescence (HTRF) format in 384-well microtiter plates using purified kinases purchased from Invitrogen (Carlsbad, CA, US). The HTRF KinEASE TK kit (contains substrate-biotin, antibody-cryptate, streptavidin-XL665, 5×enzymatic buffer, and detection buffer) was purchased from Cisbio (Codolet, France), and the kinase assays were performed according to the manufacturer’s instructions. After the kinases and the compounds incubated at 25~30 °C for 5 min, the reactions were initiated by the addition of 2 μL of mixed substrate solution (mixed solution of ATP (Sigma, Shanghai, China) and substrate-biotin). The final concentrations of kinases were at EC80 and the total reaction volume was 8 μL. Plates were incubated at 30 °C for 30~60 min, then the reactions were quenched by the addition 8 μL mixed detection solution (mixed solution of antibody-cryptate and streptavidin-XL665 in detection buffer). The fluorescence excitation wavelength was […]. The fluorescence at 665 nm (acceptor emission wavelength) and 620 nm (donor emission wavelength) was measured with a PHERAstar FS plate reader (BMG, LABTECH, Ortenberg, Germany) using a time delay of 50 μs. All kinase assays were conducted using ATP concentrations below the enzyme Kmapp and kinase-specific biotinylated substrate peptides.
(§3) The data for dose responses were plotted as percentage of inhibition calculated with the data reduction formula 100 × [1 − (U1 − C2)/(C1 − C2)] versus concentration of compound, where U is the emission ratio of 665 nm and 620 nm of test sample, C1 is the average value obtained for solvent control (2% DMSO), and C2 is the average value obtained for no reaction control (no kinase sample). Inhibition curves were generated by plotting percentage of control activity versus log10 of the concentration of each […]. The IC50 values were calculated by nonlinear regression with Graphpad Prism 5 (GraphPad Software, San Diego, CA).

The target of a further experiment is T2, VEGFR-2 (Homo sapiens, UniProt P35968).
T2 construct: was evaluated using an enzyme assay with a recombinant kinase domain; purchased Invitrogen (Carlsbad, CA, US)
Nature of the experiment: HTRF enzyme assay with recombinant VEGFR-2 kinase domain. Particulars: for IC50: purified recombinant VEGFR-2 kinase domain, HTRF, read-out: Inhibitory Activity, IC50, VEGFR-2. As to the method: as §1, §2, §3

A further experiment addresses T3, c-Kit (Homo sapiens, UniProt P10721).
T3 construct: was evaluated using an enzyme assay with a recombinant kinase domain; purchased Invitrogen (Carlsbad, CA, US)
The experiment is described as follows: HTRF enzyme assay with recombinant c-Kit kinase domain. As to conditions: for IC50: purified recombinant c-Kit kinase domain, HTRF, read-out: Inhibitory Activity, IC50, c-Kit. As to the method:
as §1, §2, §3

Bounds are passed on as bounds.

T2 sequence (P35968 834-1162 limits assumed): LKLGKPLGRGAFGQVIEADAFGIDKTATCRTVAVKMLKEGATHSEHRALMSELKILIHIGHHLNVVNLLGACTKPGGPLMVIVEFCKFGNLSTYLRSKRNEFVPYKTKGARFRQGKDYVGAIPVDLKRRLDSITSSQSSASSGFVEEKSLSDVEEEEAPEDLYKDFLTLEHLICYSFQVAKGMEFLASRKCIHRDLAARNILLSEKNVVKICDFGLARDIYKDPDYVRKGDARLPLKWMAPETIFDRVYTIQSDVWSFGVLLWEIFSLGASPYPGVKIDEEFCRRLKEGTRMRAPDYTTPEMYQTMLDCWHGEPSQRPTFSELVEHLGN
T1 sequence (P08581 1078-1345 limits assumed): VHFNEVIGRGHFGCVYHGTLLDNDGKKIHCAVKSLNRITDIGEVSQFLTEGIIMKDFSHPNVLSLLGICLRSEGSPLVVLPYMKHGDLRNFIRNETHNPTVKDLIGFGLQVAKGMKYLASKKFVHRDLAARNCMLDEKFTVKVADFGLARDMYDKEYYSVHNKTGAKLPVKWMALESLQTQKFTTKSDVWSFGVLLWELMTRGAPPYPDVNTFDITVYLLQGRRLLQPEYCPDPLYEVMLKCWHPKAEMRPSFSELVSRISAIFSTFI
T3 sequence (P10721 589-937 limits assumed): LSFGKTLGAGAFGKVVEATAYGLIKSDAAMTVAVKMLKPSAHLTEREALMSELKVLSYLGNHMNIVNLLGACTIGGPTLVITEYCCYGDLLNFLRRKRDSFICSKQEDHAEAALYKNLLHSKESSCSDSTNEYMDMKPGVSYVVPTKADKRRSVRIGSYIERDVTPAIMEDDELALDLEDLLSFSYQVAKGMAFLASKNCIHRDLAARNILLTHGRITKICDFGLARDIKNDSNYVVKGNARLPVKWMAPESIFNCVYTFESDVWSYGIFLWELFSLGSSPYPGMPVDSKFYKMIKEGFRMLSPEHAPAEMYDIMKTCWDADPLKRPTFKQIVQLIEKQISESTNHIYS

On to `Cc1cc2ccnc(NCc3cccnc3)c2c(=O)n1-c1ccc(OC(F)(F)F)cc1` [Compound 10n, 3-methyl-8-((pyridin-3-ylmethyl)amino)-2-(4-(trifluoromethoxy)phenyl)-2,7-naphthyridin-1(2H)-one], for which the IC50 on MET was above 5 µM; at VEGFR-2, above 5000 nM; at c-Kit it was above 5 µM.
With `Cc1cc2ccnc(NCc3ccncc3)c2c(=O)n1-c1ccc(OC(F)(F)F)cc1` [Compound 10o, 3-methyl-8-((pyridin-4-ylmethyl)amino)-2-(4-(trifluoromethoxy)phenyl)-2,7-naphthyridin-1(2H)-one], the IC50 on MET is above 5 µM; at VEGFR-2, 538 nM; on c-Kit, above 5 µM.
With `Cc1cc2ccnc(NCc3ccco3)c2c(=O)n1-c1ccc(OC(F)(F)F)cc1` [Compound 10p, 8-((furan-2-ylmethyl)amino)-3-methyl-2-(4-(trifluoromethoxy)phenyl)-2,7-naphthyridin-1(2H)-one], the IC50 at MET is above 5 µM; at VEGFR-2, above 5000 nM; on c-Kit, above 5 µM.
Turning to `Cc1cc2ccnc(NCc3cccc4ccccc34)c2c(=O)n1-c1ccc(OC(F)(F)F)cc1` [Compound 10q, 3-methyl-8-((naphthalen-1-ylmethyl)amino)-2-(4-(trifluoromethoxy)phenyl)-2,7-naphthyridin-1(2H)-one], the IC50 was above 5 µM at MET, above 5000 nM on VEGFR-2 and above 5 µM at c-Kit.
Turning to `Cc1cc2ccnc(NCc3ccnc4ccccc34)c2c(=O)n1-c1ccc(OC(F)(F)F)cc1` [Compound 10r, 3-methyl-8-((quinolin-4-ylmethyl)amino)-2-(4-(trifluoromethoxy)phenyl)-2,7-naphthyridin-1(2H)-one], the IC50 at MET is above 5 µM; at VEGFR-2 it was 31.7 nM; at c-Kit, 0.169 µM. For the same compound, the “VEGFR-2 potency, fold more potent than compound 3” value at VEGFR-2 (ratio of IC50 values vs compound 3) is given as 5.0–8.8 fold. On c-Kit, the “c-Kit inhibitory activity (in words)” value is “slightly stronger c-Kit inhibitory activity than compound 3”. Also, the “c-Kit potency relative to compound 9g” value at c-Kit (compared with 9g) is “five-times more potent than compound 9g”.
Consider `Cc1cc2ccnc(NCc3ccnc4ccccc34)c2c(=O)n1-c1ccc(F)cc1F` [Compound 10s, 2-(2,4-difluorophenyl)-3-methyl-8-((quinolin-4-ylmethyl)amino)-2,7-naphthyridin-1(2H)-one], for which the results for the IC50 at MET, at VEGFR-2 and on c-Kit were above 5 µM, 887 nM and above 5 µM, respectively.
